Assay results published in patent publication US11065231B2, “Compounds and methods for the targeted degradation of interleukin-1 receptor- associated kinase 4 polypeptides” (Arvinas Operations, Inc., priority 2017, dated 2021).
Where two headings read alike, the source gives them in different places.

What was measured:
IRAK4 [1] = molecular target: T1, IRAK4 (Homo sapiens (Human), UniProt Q9NWZ3); assay: Biochemical Z'-Lyte FRET assay for IRAK4 kinase inhibition; conditions: 2 nM enzyme, 1 mM ATP, 2 μM substrate
How it was run: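 Z′-Lyte FRET phosphorylation of Ser/Thr 7 peptide (2 µM) by 2 nM recombinant IRAK4 at 1 mM ATP in HEPES pH 7.5 with MgCl2/MnCl2, after 10 min enzyme–compound preincubation; 1 h at room temperature, then 1 h development, 460/530 nm emission. Duplicate 12-point, 3-fold curves from 30 µM; IC50 from percent inhibition against ±100% controls.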

IRAK4 [2] = molecular target: T1, IRAK4; assay: Western blot assay for assessing degradation of IRAK4 in MCF7 cells; format: cell-based
How it was run: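 MCF7 cells were treated 24 h with serially diluted compound (0.1% DMSO final), then lysed in RIPA. IRAK4 and IRAK1 levels were measured by western blot with β-actin probed alongside. Percent degradation compared compound-treated with DMSO-treated lysates.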

[3] = Table 5, IRAK4 degradation, 24 hour incubation, read-out: IRAK4 DC50

T1 sequence (Q9NWZ3 whole entry): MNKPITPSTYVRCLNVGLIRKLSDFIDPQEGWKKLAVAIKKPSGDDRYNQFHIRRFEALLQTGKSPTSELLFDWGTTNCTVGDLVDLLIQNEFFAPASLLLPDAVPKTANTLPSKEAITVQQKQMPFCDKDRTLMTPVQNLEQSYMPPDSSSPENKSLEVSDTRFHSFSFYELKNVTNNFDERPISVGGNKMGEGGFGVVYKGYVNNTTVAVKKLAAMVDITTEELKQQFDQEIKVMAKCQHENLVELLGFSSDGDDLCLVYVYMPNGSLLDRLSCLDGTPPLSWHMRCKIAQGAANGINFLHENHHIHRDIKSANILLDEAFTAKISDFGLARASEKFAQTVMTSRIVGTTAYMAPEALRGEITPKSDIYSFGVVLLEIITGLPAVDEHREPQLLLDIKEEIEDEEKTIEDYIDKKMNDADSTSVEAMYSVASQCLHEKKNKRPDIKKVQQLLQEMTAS

IC50 (IRAK4 [1])	DC50 (IRAK4 [2]; Table 1, 24 hours, read-out: IRAK4 by western DC50)	DC50 (IRAK4 [2]; [3])	DC50 (IRAK4 [2]; western blot, 24 hour incubation, read-out: DC50 (IRAK4 degradation))	Dmax (IRAK4 [2]; Table 5, IRAK4 degradation, 24 hour incubation, read-out: IRAK4 Dmax (%))	SMILES
< 0.03 µM	0.01 µM	< 0.03 µM	0.0097 µM		O=C1CCC(N2C(=O)c3ccc(OCCOCCN4CCN(Cc5ccc6c(c5)nc(NC(=O)c5cccc(C(F)(F)F)c5)n6[C@H]5CC[C@@H](CO)CC5)CC4)cc3C2=O)C(=O)N1 (stereo partly drawn) [compound 2, N-(5-((4-(2-(2-((2-(2,6-dioxopiperidin-3-yl)-1,3-dioxoisoindolin-5-yl)oxy)ethoxy)ethyl)piperazin-1-yl)methyl)-1-((1s,4s)-4-(hydroxymethyl)cyclohexyl)-1H-benzo[d]imidazol-2-yl)-3-(trifluoromethyl)benzamide]
≥ 1 µM		≥ 1 µM			N#Cc1ccc2ncnc(N[C@H]3CC[C@H](N4CCN(CCOCCOCCOc5ccc6c(c5)C(=O)N(C5CCC(=O)NC5=O)C6=O)CC4)CC3)c2c1 (stereo partly drawn) [compound 31]
≥ 1 µM		≥ 1 µM			N#Cc1ccc2ncnc(N[C@H]3CC[C@H](N4CCN(S(=O)(=O)CCOCCOCCOc5ccc6c(c5)C(=O)N(C5CCC(=O)NC5=O)C6=O)CC4)CC3)c2c1 (stereo partly drawn) [compound 36]
< 0.03 µM		0.03 to 0.1 µM		> 70%	COc1cc2nn(C3CCN(CC4CCN(CCOc5ccc6c(c5)C(=O)N(C5CCC(=O)NC5=O)C6=O)CC4)CC3)cc2cc1NC(=O)c1cccc(C(F)(F)F)n1 (stereo not drawn) [compound 63, N-(2-(1-((1-(2-((2-(2,6-dioxopiperidin-3-yl)-1,3-dioxoisoindolin-5-yl)oxy)ethyl)piperadin-4-yl)methyl)piperidin-4-yl)-6-methoxy-2H-indazol-5-yl)-6-(trifluoromethyl)picolinamide]
≥ 1 µM		≥ 1 µM			N#Cc1ccc2ncnc(N[C@H]3CC[C@@H](N4CCN(S(=O)(=O)CCOCCOc5ccc6c(c5)C(=O)N(C5CCC(=O)NC5=O)C6=O)CC4)CC3)c2c1 (stereo partly drawn) [compound 35]
≥ 1 µM		≥ 1 µM			CN(CCOc1ccc2c(c1)C(=O)N(C1CCC(=O)NC1=O)C2=O)c1cccc(-n2c(NC(=O)c3cccc(C(F)(F)F)c3)nc3cc(F)ccc32)c1 (stereo not drawn) [compound 50, N-(1-(3-((2-((2-(2,6-dioxopiperidin-3-yl)-1,3-dioxoisoindolin-5-yl)oxy)ethyl)(methyl)amino)phenyl)-5-fluoro-1H-benzo[d]imidazol-2-yl)-3-(trifluoromethyl)benzamide]
0.3 to 1 µM		≥ 1 µM			Cc1ccc(-n2nc(N3CCN(CCOCCOCCOCCOCC(=O)N[C@H](C(=O)N4C[C@H](O)C[C@H]4C(=O)NCc4ccc(-c5scnc5C)cc4)C(C)(C)C)CC3)cc2NC(=O)c2cnn3cccnc23)nc1 [compound 28, N-(3-(4-((S)-16-((2S,4R)-4-hydroxy-2-((4-(4-methylthiazol-5-yl)benzyl)carbamoyl)pyrrolidine-1-carbonyl)-17,17-dimethyl-14-oxo-3,6,9,12-tetraoxa-15-azapentadecyl)piperazin-1-yl)-1-(5-methylpyridin-2-yl)-1H-pyrazol-5-yl)pyrazolo[1,5-a]pyrimidine-3-carboxamide]
0.3 to 1 µM		≥ 1 µM			Cc1ccc(-n2nc(N3CCN(CCOCCOCCOCC(=O)N[C@H](C(=O)N4C[C@H](O)C[C@H]4C(=O)NCc4ccc(-c5scnc5C)cc4)C(C)(C)C)CC3)cc2NC(=O)c2cnn3cccnc23)nc1 [compound 27, N-(3-(4-((S)-13-((2S,4R)-4-hydroxy-2-((4-(4-methylthiazol-5-yl)benzyl)carbamoyl)pyrrolidine-1-carbonyl)-14,14-dimethyl-11-oxo-3,6,9-trioxa-12-azapentadecyl)piperazin-1-yl)-1-(5-methylpyridin-2-yl)-1H-pyrazol-5-yl)pyrazolo[1,5-a]pyrimidine-3-carboxamide]
≥ 1 µM		≥ 1 µM			N#Cc1ccc2ncnc(N[C@H]3CC[C@H](N4CCN(CCOCCOCCOCCOCCOc5ccc6c(c5)C(=O)N(C5CCC(=O)NC5=O)C6=O)CC4)CC3)c2c1 (stereo partly drawn) [compound 33]
